Measurements as given in PMC7504751, “Potential of 2-Chloro-N-(4-fluoro-3-nitrophenyl)acetamide Against Klebsiella pneumoniae and In Vitro Toxicity Analysis” (Molecules, 2020).
≈ marks a conversion by molar mass, not a printed value. Entries after “also recorded” stand apart in the source; their conditions may differ. Like-named read-outs stand apart in the source and are kept apart here.

Tests used:
K. pneumoniae strains = assay: Minimum inhibitory concentration (MIC), broth microdilution; assay type: cell-based, Klebsiella pneumoniae
Protocol: The clinical isolates strains of K. pneumoniae were used in this study belong to the MICOTECA of the Antibacterial and Antifungal Activity Research Laboratory of the Federal University of Paraíba, Brazil, which are: KP-25, KP-26, KP-56, KP-83, KP-87, KP-138, KP-143, KP-166, KP-173, KP-176, KP-260, and KP-326. The American Type Culture Collection strain ATCC-700603 was used as controls. For use in the assays, bacterial suspensions were prepared in 0.9% saline solution, from fresh cultures, and adjusted to the McFarland standard 0.5 scale.
To assess the antibacterial activity of substances A1 and A2, the minimum inhibitory concentration against K. pneumoniae strains was determined. The substances were solubilized in dimethyl sulfoxide (DMSO) at 5% and Tween-80 at 2%, to obtain emulsions in the concentrations necessary for use in the tests. The MIC determination was performed using the broth microdilution technique in a 96-well plate to obtain different concentrations of A1 and A2 [35]. In parallel, controls for sterility, cell viability, and interference of the vehicles used in the preparation of substance emulsions (DMSO and Tween-80) were also performed. MIC is defined as the lowest concentration capable of causing complete inhibition of bacterial growth after 24 h at 35 ± 2 °C.

Candida albicans = system: Candida albicans; set-up: method as in doi:10.4067/S0717-97072003000400005; conditions: cited from earlier work
oral mucosa cells = assay: Genotoxic effects on oral mucosa cells; assay type: cell-based, human; conditions: positive control, hydrogen peroxide 0.0005%
Protocol: The tests were performed according to the recommendations established by the Code of Ethics of the World Medical Association, after approval by the ethics committee of the Centro Universitário de Patos (number: 3621284). Blood samples (types A, B, and O) and smears of oral mucosa were donated by young, healthy adults. First, the oral mucosa cells were collected from the donors, which was done with a cyto-brush (smear collector) in the cheek area, and the material obtained was placed in 5 mL of 0.9% NaCl. As controls, cells treated with hydrogen peroxide −0.0005% (positive control) and untreated cells (negative control) were used. The cells were washed twice with saline and centrifuged for 10 min at 400× g and kept in saline. After the third wash, the cells were exposed (ex vivo) to A2 substance at 50, 100, 500, and 1000 µg/mL concentrations for 30 min. The material was centrifuged and the supernatant was discarded before smear preparation. The cells were homogenized in a vortex and placed on the slides at room temperature for drying for 15 min. Then, they were fixed with methanol: acetic acid (3:1) for 15 min and stained with 2% Giemsa.

For `CC(=O)Nc1ccc(F)c([N+](=O)[O-])c1` [A1, N-(4-fluoro-3-nitrophenyl)acetamide], the MIC (K. pneumoniae strains; Klebsiella pneumoniae, ATCC700603, strain ATCC-700603, 24 h at 35 ± 2 °C, read-out: MIC) was 1020 µg/mL (≈ 5.17 mM), the MIC (K. pneumoniae strains; Klebsiella pneumoniae, 100% of the K. pneumoniae strains used in this study, read-out: MIC) was 1020 µg/mL (≈ 5.17 mM) and the MIC (K. pneumoniae strains; Klebsiella pneumoniae, strain KP-138, 24 h at 35 ± 2 °C, read-out: MIC) was 1020 µg/mL (≈ 5.17 mM). It also gave an MIC (K. pneumoniae strains; strain KP-25, 24 h at 35 ± 2 °C) of 1024 µg/mL (≈ 5.17 mM), an MIC (K. pneumoniae strains; strain KP-26, 24 h at 35 ± 2 °C) of 1024 µg/mL (≈ 5.17 mM) and an MIC (K. pneumoniae strains; strain KP-56, 24 h at 35 ± 2 °C) of 1024 µg/mL (≈ 5.17 mM). For the same compound, the MIC (K. pneumoniae strains; strain KP-83, 24 h at 35 ± 2 °C) was 1024 µg/mL (≈ 5.17 mM), the MIC (K. pneumoniae strains; strain KP-87, 24 h at 35 ± 2 °C) was 1024 µg/mL (≈ 5.17 mM) and the MIC (K. pneumoniae strains; strain KP-143, 24 h at 35 ± 2 °C) was 1024 µg/mL (≈ 5.17 mM). For the same compound, the MIC (K. pneumoniae strains; strain KP-166, 24 h at 35 ± 2 °C) was 1024 µg/mL (≈ 5.17 mM), the MIC (K. pneumoniae strains; strain KP-173, 24 h at 35 ± 2 °C) was 1024 µg/mL (≈ 5.17 mM) and the MIC (K. pneumoniae strains; strain KP-176, 24 h at 35 ± 2 °C) was 1024 µg/mL (≈ 5.17 mM). It also gave an MIC (K. pneumoniae strains; strain KP-260, 24 h at 35 ± 2 °C) of 1024 µg/mL (≈ 5.17 mM), an MIC (K. pneumoniae strains; strain KP-326, 24 h at 35 ± 2 °C) of 1024 µg/mL (≈ 5.17 mM) and a melting point of 142 to 144 °C.

For `O=C(CCl)Nc1ccccc1O` [2-chloro-N-(2-hydroxyphenyl) acetamide], the “C. albicans strains inhibited” value (Candida albicans) is listed as 96.6%.

For `CC(=O)Nc1ccccc1O` [N-(2-hydroxyphenyl) acetamide], the “antimicrobial activity against Candida albicans” value (Candida albicans) is given as “did not have the ability to inhibit fungal growth; also recorded: absence of activity”.

Compound `OO` [PC-H2O2, hydrogen peroxide, reference compound] has a Binucleation (oral mucosa cells) of 1.00%, a Karyolysis (oral mucosa cells) of 7.00% and a Karyorrhexis (oral mucosa cells) of 10.75%. The Micronucleus (oral mucosa cells) was 6.50% and the Normal (oral mucosa cells) was 77.75%.
